According to ChEMBL document CHEMBL5291721, “A preclinical secondary pharmacology resource illuminates target-adverse drug reaction associations of marketed drugs” (Nat Commun, 2023):

How the values were obtained:
[1] = target: T1, Alpha-1A adrenergic receptor (Homo sapiens, UniProt P35348); format: functional, cell-based
T1 sequence (P35348 whole entry): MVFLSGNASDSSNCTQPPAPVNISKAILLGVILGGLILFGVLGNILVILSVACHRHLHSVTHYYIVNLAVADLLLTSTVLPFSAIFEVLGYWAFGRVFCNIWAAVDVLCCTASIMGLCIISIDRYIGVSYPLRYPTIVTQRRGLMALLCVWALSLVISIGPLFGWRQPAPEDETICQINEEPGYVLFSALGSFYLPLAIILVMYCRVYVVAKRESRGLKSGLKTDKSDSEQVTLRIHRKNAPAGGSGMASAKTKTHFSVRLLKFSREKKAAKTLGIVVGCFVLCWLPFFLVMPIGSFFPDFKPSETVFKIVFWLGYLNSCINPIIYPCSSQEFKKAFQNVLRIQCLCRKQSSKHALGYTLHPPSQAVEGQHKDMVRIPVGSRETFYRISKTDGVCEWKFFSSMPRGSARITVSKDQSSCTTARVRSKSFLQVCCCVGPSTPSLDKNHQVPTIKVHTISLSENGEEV

[2] = target: Prostaglandin G/H synthase 1 (Homo sapiens, UniProt P23219); format: functional
[3] = target: Sodium-dependent noradrenaline transporter (Homo sapiens, UniProt P23975)
[4] = target: T2, Muscarinic acetylcholine receptor M2 (Homo sapiens, UniProt P08172)
T2 sequence (P08172 whole entry): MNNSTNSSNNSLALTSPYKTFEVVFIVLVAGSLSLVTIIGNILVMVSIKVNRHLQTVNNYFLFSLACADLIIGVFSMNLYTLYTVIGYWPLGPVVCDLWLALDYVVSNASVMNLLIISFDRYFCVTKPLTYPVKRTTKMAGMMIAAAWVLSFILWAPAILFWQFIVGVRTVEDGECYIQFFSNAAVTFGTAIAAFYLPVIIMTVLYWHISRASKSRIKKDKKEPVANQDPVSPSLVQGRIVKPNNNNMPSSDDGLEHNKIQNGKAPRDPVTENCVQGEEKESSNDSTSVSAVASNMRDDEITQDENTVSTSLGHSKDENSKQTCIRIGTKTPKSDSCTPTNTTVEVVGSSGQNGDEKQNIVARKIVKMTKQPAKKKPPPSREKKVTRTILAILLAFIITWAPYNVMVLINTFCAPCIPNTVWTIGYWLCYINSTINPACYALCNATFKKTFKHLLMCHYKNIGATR

[5] = target: T3, Amine oxidase [flavin-containing] A (Homo sapiens, UniProt P21397); format: functional
T3 sequence (P21397 whole entry): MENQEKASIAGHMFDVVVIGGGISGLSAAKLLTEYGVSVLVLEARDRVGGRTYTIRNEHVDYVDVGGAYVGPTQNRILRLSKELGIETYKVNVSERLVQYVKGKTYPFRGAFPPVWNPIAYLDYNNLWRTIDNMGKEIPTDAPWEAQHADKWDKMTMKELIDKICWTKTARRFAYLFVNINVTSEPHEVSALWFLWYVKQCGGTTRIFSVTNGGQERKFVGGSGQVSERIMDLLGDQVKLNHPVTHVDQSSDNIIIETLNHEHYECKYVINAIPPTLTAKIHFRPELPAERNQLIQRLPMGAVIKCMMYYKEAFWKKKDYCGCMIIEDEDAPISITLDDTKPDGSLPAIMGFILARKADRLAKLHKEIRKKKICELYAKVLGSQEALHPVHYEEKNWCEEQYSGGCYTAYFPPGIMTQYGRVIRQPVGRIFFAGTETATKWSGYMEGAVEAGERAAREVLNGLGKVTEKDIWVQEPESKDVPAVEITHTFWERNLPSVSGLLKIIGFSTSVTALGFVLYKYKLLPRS

Prothrombin = Prothrombin (Homo sapiens, UniProt P00734); format: functional
Acetylcholinesterase = Acetylcholinesterase (Homo sapiens, UniProt P22303); format: functional
Adenosine receptor A3 = target: T4, Adenosine receptor A3 (Homo sapiens, UniProt P0DMS8)
T4 sequence (P0DMS8 whole entry): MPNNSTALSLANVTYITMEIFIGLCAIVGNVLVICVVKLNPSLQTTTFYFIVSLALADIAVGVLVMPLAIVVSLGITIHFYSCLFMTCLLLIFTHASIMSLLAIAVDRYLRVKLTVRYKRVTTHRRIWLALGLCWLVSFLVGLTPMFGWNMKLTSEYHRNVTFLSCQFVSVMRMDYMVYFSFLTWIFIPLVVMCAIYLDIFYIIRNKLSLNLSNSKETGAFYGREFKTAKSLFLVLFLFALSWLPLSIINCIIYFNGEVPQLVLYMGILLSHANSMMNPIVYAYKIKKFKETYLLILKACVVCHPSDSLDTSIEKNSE

Mu-type opioid receptor = Mu-type opioid receptor (Homo sapiens, UniProt P35372)
D(1A) dopamine receptor = D(1A) dopamine receptor (Homo sapiens, UniProt P21728)
[6] = target: 3',5'-cyclic-AMP phosphodiesterase 4A (Homo sapiens, UniProt P27815); format: functional
[7] = target: T5, Muscarinic acetylcholine receptor M1 (Homo sapiens, UniProt P11229); format: functional, cell-based
T5 sequence (P11229 whole entry): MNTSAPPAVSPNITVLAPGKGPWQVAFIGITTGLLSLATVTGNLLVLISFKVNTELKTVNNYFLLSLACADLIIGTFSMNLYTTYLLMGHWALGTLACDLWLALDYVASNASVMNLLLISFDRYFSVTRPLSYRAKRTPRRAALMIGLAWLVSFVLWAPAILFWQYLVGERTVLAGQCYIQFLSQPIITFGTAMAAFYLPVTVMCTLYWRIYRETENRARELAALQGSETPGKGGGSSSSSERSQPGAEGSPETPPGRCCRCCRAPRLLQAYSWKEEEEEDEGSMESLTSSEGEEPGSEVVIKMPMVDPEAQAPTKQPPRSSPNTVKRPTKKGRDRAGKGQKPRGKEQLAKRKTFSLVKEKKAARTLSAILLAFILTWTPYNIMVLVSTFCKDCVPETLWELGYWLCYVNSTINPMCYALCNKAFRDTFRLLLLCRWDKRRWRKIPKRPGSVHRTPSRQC

Cannabinoid receptor 1 = Cannabinoid receptor 1 (Homo sapiens, UniProt P21554); format: functional, cell-based
Note: assay procedure not described here.

Sodium-dependent noradrenaline transporter, sequence (P23975 whole entry): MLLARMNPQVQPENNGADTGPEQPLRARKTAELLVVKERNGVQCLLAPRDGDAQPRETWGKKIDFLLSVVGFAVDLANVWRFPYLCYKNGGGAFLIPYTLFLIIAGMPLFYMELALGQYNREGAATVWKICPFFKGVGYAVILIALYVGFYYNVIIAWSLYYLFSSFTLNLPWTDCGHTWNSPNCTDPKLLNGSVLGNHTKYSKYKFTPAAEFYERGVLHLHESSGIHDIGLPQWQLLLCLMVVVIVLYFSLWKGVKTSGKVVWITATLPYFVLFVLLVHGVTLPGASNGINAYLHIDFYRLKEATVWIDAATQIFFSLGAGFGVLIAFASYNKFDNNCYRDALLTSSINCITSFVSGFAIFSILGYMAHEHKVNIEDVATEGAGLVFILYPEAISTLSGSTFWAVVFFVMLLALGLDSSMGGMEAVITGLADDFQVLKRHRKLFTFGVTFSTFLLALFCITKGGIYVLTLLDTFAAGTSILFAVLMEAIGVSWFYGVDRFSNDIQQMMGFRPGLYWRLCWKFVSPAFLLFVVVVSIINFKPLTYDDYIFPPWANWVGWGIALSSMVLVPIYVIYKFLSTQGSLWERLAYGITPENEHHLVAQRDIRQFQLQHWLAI
Cannabinoid receptor 1, sequence (P21554 whole entry): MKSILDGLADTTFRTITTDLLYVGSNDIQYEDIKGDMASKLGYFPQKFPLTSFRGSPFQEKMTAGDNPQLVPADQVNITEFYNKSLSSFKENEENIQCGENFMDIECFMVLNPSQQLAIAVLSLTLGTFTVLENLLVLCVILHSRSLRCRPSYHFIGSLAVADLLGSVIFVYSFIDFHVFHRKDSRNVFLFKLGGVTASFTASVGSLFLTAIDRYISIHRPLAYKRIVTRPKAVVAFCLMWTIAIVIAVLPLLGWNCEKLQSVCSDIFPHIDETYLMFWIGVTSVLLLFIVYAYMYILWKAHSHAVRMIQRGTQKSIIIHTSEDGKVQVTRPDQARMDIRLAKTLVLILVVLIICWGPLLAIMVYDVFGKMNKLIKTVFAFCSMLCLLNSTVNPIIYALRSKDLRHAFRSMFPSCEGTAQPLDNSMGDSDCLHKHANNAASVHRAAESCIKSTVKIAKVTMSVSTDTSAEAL
Acetylcholinesterase, sequence (P22303 whole entry): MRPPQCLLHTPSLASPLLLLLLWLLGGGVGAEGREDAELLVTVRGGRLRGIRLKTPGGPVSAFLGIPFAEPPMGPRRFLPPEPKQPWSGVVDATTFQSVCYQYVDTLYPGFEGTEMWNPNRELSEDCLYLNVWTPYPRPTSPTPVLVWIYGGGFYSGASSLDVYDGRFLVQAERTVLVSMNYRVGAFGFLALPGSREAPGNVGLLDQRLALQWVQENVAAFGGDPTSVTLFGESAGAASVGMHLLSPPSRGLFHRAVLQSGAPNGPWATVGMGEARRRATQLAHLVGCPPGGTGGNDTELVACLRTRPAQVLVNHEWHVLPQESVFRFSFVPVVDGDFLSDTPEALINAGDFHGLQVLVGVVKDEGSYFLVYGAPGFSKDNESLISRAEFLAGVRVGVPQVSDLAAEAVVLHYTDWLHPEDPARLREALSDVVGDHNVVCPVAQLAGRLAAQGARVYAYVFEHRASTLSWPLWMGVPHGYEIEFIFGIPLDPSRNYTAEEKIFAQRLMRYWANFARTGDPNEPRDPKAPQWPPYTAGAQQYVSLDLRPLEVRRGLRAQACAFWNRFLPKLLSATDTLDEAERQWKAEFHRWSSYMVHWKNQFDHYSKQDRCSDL
D(1A) dopamine receptor, sequence (P21728 whole entry): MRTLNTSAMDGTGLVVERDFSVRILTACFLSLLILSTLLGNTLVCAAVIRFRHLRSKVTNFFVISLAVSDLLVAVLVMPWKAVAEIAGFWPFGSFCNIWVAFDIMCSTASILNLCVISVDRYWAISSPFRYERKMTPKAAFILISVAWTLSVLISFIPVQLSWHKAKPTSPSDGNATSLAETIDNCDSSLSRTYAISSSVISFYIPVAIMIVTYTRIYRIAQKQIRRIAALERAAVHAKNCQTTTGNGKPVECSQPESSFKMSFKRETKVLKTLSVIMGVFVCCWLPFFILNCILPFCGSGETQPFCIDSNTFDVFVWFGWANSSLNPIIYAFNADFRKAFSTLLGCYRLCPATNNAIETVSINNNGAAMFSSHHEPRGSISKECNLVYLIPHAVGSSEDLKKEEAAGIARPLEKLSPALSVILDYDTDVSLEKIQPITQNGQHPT
Prostaglandin G/H synthase 1, sequence (P23219 whole entry): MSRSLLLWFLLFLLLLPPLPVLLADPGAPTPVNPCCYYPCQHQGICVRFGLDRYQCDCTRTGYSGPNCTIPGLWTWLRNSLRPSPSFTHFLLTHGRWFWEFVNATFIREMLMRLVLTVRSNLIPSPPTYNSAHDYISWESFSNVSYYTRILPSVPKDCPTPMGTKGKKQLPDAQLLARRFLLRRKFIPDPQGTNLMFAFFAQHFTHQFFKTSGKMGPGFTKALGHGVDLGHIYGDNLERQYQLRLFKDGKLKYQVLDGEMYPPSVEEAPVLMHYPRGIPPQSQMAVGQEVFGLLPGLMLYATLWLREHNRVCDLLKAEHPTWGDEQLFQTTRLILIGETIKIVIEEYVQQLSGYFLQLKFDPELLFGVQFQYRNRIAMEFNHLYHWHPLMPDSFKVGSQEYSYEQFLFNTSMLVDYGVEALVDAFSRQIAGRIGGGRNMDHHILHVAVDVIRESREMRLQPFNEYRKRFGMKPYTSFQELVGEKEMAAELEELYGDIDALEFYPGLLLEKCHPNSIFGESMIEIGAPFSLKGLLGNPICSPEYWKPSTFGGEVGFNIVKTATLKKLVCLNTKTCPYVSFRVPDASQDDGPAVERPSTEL
Mu-type opioid receptor, sequence (P35372 whole entry): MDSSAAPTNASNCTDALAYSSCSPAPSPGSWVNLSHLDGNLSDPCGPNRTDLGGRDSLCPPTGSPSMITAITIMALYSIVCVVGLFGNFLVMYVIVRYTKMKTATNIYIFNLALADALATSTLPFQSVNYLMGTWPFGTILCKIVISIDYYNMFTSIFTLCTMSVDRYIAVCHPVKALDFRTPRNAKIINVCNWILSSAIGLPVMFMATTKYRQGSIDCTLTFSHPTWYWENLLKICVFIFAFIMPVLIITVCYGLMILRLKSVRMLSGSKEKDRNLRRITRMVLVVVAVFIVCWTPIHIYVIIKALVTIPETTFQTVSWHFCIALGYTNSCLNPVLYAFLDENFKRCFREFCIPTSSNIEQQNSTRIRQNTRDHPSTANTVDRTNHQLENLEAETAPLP
3',5'-cyclic-AMP phosphodiesterase 4A, sequence (P27815 whole entry): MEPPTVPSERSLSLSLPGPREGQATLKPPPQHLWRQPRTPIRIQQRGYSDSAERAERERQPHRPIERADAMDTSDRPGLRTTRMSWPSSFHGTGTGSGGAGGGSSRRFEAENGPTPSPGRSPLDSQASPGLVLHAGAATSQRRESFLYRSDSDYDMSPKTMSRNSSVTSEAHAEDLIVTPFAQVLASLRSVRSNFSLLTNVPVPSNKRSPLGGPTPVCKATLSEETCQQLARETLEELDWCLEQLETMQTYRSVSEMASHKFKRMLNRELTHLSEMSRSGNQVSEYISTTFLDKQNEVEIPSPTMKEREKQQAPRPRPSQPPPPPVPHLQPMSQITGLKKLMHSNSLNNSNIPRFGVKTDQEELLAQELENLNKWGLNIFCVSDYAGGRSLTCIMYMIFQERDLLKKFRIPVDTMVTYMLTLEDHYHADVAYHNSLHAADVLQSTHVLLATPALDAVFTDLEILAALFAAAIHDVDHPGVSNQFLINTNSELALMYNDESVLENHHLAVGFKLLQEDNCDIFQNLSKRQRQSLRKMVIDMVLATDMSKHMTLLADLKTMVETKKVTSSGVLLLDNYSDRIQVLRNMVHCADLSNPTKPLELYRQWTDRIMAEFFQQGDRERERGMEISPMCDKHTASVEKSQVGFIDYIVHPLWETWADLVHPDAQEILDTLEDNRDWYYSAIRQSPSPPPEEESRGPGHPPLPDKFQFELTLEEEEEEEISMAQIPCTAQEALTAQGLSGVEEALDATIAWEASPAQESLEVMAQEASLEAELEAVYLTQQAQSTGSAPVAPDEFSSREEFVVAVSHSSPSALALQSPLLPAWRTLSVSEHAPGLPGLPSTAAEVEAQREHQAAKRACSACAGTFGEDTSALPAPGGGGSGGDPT

Compound | AC50 [1] | AC50 [2] | AC50 [3] | AC50 [4] | AC50 [5] | AC50 (Prothrombin) | AC50 (Acetylcholinesterase) | AC50 (Adenosine receptor A3) | AC50 (Mu-type opioid receptor) | AC50 (D(1A) dopamine receptor) | AC50 [6] | AC50 [7] | AC50 (Cannabinoid receptor 1)
Cc1cc(C2CCCCC2)n(O)c(=O)c1 [CICLOPIROX] | 23.1 µM | > 30 µM | > 30 µM | > 30 µM | > 30 µM | > 30 µM | > 30 µM | > 30 µM | > 30 µM | > 30 µM | > 30 µM | – | –
CC(=O)NCCCCCC(=O)O [ACEXAMIC ACID] | 18.9 µM | > 30 µM | > 30 µM | > 30 µM | > 30 µM | > 30 µM | > 30 µM | – | > 30 µM | > 30 µM | > 30 µM | > 30 µM | –
CC(=O)NO [ACETOHYDROXAMIC ACID] | > 30 µM | 21.5 µM | > 30 µM | > 30 µM | > 30 µM | > 30 µM | > 30 µM | – | > 30 µM | > 30 µM | > 30 µM | > 30 µM | –
C[N+]1(C)CCCC(OC(=O)C(O)(c2ccccc2)c2ccccc2)C1 (centres undefined) [MEPENZOLATE] | > 30 µM | > 30 µM | > 30 µM | – | > 30 µM | > 30 µM | > 30 µM | – | > 30 µM | > 30 µM | > 30 µM | > 30 µM | –
C[N+](C)(C)CCOC(=O)CCC(=O)OCC[N+](C)(C)C [SUXAMETHONIUM] | 0.667 µM | > 30 µM | > 30 µM | > 30 µM | > 30 µM | > 30 µM | > 30 µM | – | > 30 µM | > 30 µM | > 30 µM | – | –
O=C1Cc2cc(CCN3CCN(c4nsc5ccccc45)CC3)c(Cl)cc2N1 [ZIPRASIDONE] | > 30 µM | > 30 µM | 0.507 µM | 7.14 µM | > 30 µM | > 30 µM | > 30 µM | > 30 µM | 5.06 µM | – | > 30 µM | 12.9 µM | > 30 µM
O=C(O)P(=O)(O)O [FOSCARNET] | > 30 µM | > 30 µM | > 30 µM | > 30 µM | > 30 µM | > 30 µM | > 30 µM | – | > 30 µM | > 30 µM | > 30 µM | – | –
CC(C(=O)O)c1cccc(Oc2ccccc2)c1 (centres undefined) [FENOPROFEN] | > 30 µM | 1.52 µM | > 30 µM | > 30 µM | > 30 µM | > 30 µM | > 30 µM | – | > 30 µM | > 30 µM | > 30 µM | – | –
C[C@H]1CN(C[C@H](Cc2ccccc2)C(=O)NCC(=O)O)CC[C@@]1(C)c1cccc(O)c1 [ALVIMOPAN] | > 30 µM | > 30 µM | > 30 µM | > 30 µM | > 30 µM | > 30 µM | > 30 µM | – | – | > 30 µM | > 30 µM | > 30 µM | –
CCCc1nc2c(C)cc(-c3nc4ccccc4n3C)cc2n1Cc1ccc(-c2ccccc2C(=O)O)cc1 | 9.55 µM | > 30 µM | > 30 µM | > 30 µM | > 30 µM | > 30 µM | > 30 µM | 18.3 µM | 2.56 µM | > 30 µM | 13.5 µM | – | > 30 µM
O=C(O)c1ccccc1 [BENZOIC ACID] | > 30 µM | > 30 µM | > 30 µM | > 30 µM | > 30 µM | > 30 µM | > 30 µM | – | > 30 µM | > 30 µM | > 30 µM | – | –
CC1(C)O[C@@H]2C[C@H]3[C@@H]4C[C@H](F)C5=CC(=O)C=C[C@]5(C)[C@@]4(F)[C@@H](O)C[C@]3(C)[C@]2(C(=O)CO)O1 [FLUOCINOLONE ACETONIDE] | > 30 µM | > 30 µM | > 30 µM | > 30 µM | > 30 µM | > 30 µM | > 30 µM | – | > 30 µM | > 30 µM | > 30 µM | – | –
Cc1ccc(C(=O)c2ccc(CC(=O)O)n2C)cc1 [TOLMETIN] | > 30 µM | 0.081 µM | > 30 µM | > 30 µM | > 30 µM | > 30 µM | > 30 µM | – | > 30 µM | > 30 µM | > 30 µM | – | –
Cc1ccc(C)c(OCCCC(C)(C)C(=O)O)c1 [GEMFIBROZIL] | > 30 µM | > 30 µM | > 30 µM | > 30 µM | > 30 µM | > 30 µM | > 30 µM | > 30 µM | > 30 µM | > 30 µM | > 30 µM | – | > 30 µM
N=C(N)N/N=C/c1c(Cl)cccc1Cl [GUANABENZ] | 0.0423 µM | > 30 µM | 8.81 µM | > 30 µM | 3.21 µM | > 30 µM | > 30 µM | – | 5.18 µM | 8.03 µM | > 30 µM | – | –
CCC1=C[C@@H]2CN(C1)Cc1c([nH]c3ccccc13)[C@@](C(=O)OC)(c1cc3c(cc1OC)N(C)[C@H]1[C@@](O)(C(=O)OC)[C@H](OC(C)=O)[C@]4(CC)C=CCN5CC[C@]31[C@@H]54)C2 [VINORELBINE] | > 30 µM | > 30 µM | > 30 µM | > 30 µM | > 30 µM | > 30 µM | > 30 µM | – | 6.76 µM | > 30 µM | > 30 µM | – | –
COc1ccc2[nH]c([S+]([O-])Cc3ncc(C)c(OC)c3C)nc2c1 (centres undefined) [OMEPRAZOLE] | > 30 µM | 5.76 µM | > 30 µM | 15.7 µM | > 30 µM | > 30 µM | > 30 µM | – | 12 µM | > 30 µM | > 30 µM | – | –
